Laboratory results as given in ChEMBL document CHEMBL4622844, “Inhibition of bacterial growth and galactosyltransferase activity of WbwC by α, ω-bis(3-alkyl-1H-imidazolium)alkane salts: Effect of varying carbon content” (Bioorg Med Chem, 2020).
One block for each compound: values may come before it. The source made the active and inactive calls. The rule behind the calls is not given here.

Experiments:
Escherichia coli = test: Inhibition of recombinant Escherichia coli O104:H4 Beta-1,3-galactosyltransferase WbwC expressed in Escherichia coli BL21 at 0.5 mM in presence of UDP-[3H]Gal and GalNAC-PO3-PO3-(CH2)11-O-phenyl after 1 hr by scintillation counting method relative to control
[1] = Inhibition of recombinant Escherichia coli O104:H4 Beta-1,3-galactosyltransferase WbwC expressed in Escherichia coli BL21 in presence of UDP-[3H]Gal and GalNAC-PO3-PO3-(CH2)11-O-phenyl after 1 hr by scintillation counting method
AD293 [2] = test: Growth inhibition of human AD293 cells at 50 uM after 24 hrs by MTT assay; format: cell-based; conditions: ad293, 24 h
A549 [3] = test: Growth inhibition of human A549 cells at 50 uM after 24 hrs by MTT assay; format: cell-based; conditions: a549, 24 h
OC-3-VGH [4] = test: Growth inhibition of human OC-3-VGH cells at 50 uM after 24 hrs by MTT assay; format: cell-based
[5] = target: T1, Beta-1,4-galactosyltransferase 1 (Bos taurus) (UniProt P08037); test: Inhibition of bovine milk Beta-1,4-galactosyltransferase at 0.5 mM in presence of UDP-[3H]Gal and GlcNAc-beta-Bn after 1 hr by scintillation counting method
T1 sequence (whole entry): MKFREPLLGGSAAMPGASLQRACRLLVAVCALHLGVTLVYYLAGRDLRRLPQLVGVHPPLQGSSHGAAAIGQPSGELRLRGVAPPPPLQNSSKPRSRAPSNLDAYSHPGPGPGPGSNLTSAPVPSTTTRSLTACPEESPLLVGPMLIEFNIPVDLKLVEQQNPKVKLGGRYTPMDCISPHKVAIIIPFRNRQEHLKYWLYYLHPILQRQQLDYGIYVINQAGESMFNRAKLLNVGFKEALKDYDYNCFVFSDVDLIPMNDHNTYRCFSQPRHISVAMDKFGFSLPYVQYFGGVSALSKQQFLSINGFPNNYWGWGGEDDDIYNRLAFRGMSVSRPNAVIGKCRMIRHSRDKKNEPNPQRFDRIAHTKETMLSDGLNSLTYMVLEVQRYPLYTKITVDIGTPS

Pseudomonas aeruginosa = test: Antimicrobial activity against Pseudomonas aeruginosa PAO1 assessed as inhibition of colony formation at 50 uM preincubated for 4 hrs and measured after overnight incubation by CFU assay; format: functional
[6] = Growth inhibition of human OC-3-VGH cells at 1 mM after 24 hrs by MTT assay; format: cell-based; conditions: read-out: GI
OC-3-VGH [7] = test: Inhibition of cell migration in human OC-3-VGH cells at 500 uM incubated for 18 hrs by scratch wound healing assay; format: cell-based
OC-3-VGH [8] = test: Growth inhibition of human OC-3-VGH cells after 24 hrs by MTT assay; format: cell-based
[9] = Growth inhibition of human OC-3-VGH cells at 0.5 mM after 24 hrs by MTT assay; format: cell-based; conditions: read-out: GI
PC-3 [10] = test: Growth inhibition of human PC3 cells at 0.5 mM after 24 hrs by MTT assay; format: cell-based; conditions: pc-3, 24 h, 500 µM
AD293 [11] = test: Growth inhibition of human AD293 cells at 0.5 mM after 24 hrs by MTT assay; format: cell-based; conditions: ad293, 24 h, 500 µM
PC-3 [12] = test: Growth inhibition of human PC3 cells after 24 hrs by MTT assay; format: cell-based; conditions: pc-3, 24 h
AD293 [13] = test: Growth inhibition of human AD293 cells after 24 hrs by MTT assay; format: cell-based; conditions: ad293, 24 h
A549 [14] = test: Growth inhibition of human A549 cells after 24 hrs by MTT assay; format: cell-based; conditions: a549, 24 h
A549 [15] = test: Growth inhibition of human A549 cells at 0.5 mM after 24 hrs by MTT assay; format: cell-based; conditions: a549, 24 h, 500 µM

inhibition (Escherichia coli): 6%
SMILES: CCCCCC[n+]1ccn(CCCCCCn2cc[n+](CCCCCC)c2)c1

IC50 [1]: 152 µM
inhibition (Escherichia coli): 98%
SMILES: CCCCCCCCCC[n+]1ccn(CCCCCCCCCCn2cc[n+](CCCCCCCCCC)c2)c1

inhibition (Escherichia coli): < 1%
SMILES: CCCCCCC[n+]1ccn(CCCCCCCCCCn2cc[n+](CCCCCCC)c2)c1

SMILES: c1cn(CCCCCCCCCCCCCCCCCCn2ccnc2)cn1
growth inhibition (GI) (AD293 [2]): Non-Toxic
growth inhibition (GI) (A549 [3]): Non-Toxic
growth inhibition (GI) (OC-3-VGH [4]): Non-Toxic

inhibition [5]: Active
IC50 [1]: 263 µM
inhibition (Escherichia coli): 92%
SMILES: CCCCCCCCCC[n+]1ccn(CCCCCCn2cc[n+](CCCCCCCCCC)c2)c1

inhibition [5]: inactive
SMILES: CCCC(=O)N[C@@H]1[C@@H](O)[C@H](O)[C@@H](CO)O[C@H]1Sc1ccc2ccccc2c1
inhibition (Pseudomonas aeruginosa): inactive
inhibition at 24 h, 1000 µM [6]: 50%

IC50 [1]: 117 µM
inhibition (Escherichia coli): 99%
SMILES: CCCCCCCCCCC[n+]1ccn(CCCCCCn2cc[n+](CCCCCCCCCCC)c2)c1

SMILES: c1cn(CCCCCCCCCCCCCCCCn2ccnc2)cn1
growth inhibition (GI) (AD293 [2]): Non-Toxic
growth inhibition (GI) (A549 [3]): Non-Toxic
growth inhibition (GI) (OC-3-VGH [4]): Non-Toxic

SMILES: c1cn(CCCCCCCCCCCCCCCCCCCCn2ccnc2)cn1
growth inhibition (GI) (AD293 [2]): Non-Toxic
growth inhibition (GI) (A549 [3]): Non-Toxic
growth inhibition (GI) (OC-3-VGH [4]): Non-Toxic

inhibition (Escherichia coli): 13%
SMILES: CCCCCCCC[n+]1ccn(CCCCCCn2cc[n+](CCCCCCCC)c2)c1

inhibition (INH) (OC-3-VGH [7]): Active
IC50 [1]: 230 µM
inhibition (Escherichia coli): 91%
SMILES: CS(=O)(=O)[O-].CS(=O)(=O)[O-].C[n+]1ccn(CCCCCCCCCCCCCCCCCCCCn2cc[n+](C)c2)c1
inhibition at 50 µM (Pseudomonas aeruginosa): > 90%
IC50 (OC-3-VGH [8]): 5 to 12 µM
inhibition at 24 h, 500 µM [9]: 80%
growth inhibition (GI) (PC-3 [10]): Toxic
growth inhibition (GI) (AD293 [11]): Toxic
growth inhibition (GI) (PC-3 [12]): Toxic
growth inhibition (GI) (AD293 [13]): Toxic
growth inhibition (GI) (A549 [14]): Toxic
growth inhibition (GI) (A549 [15]): Toxic

IC50 [1]: 62 µM
inhibition (Escherichia coli): 98%
SMILES: CCCCCCCCCCC[n+]1ccn(CCCCCCCCCCn2cc[n+](CCCCCCCCCCC)c2)c1

IC50 [1]: 35 µM
inhibition (Escherichia coli): 93%
SMILES: CCCCCCCCC[n+]1ccn(CCCCCCCCCCCCCCCCn2cc[n+](CCCCCCCCC)c2)c1

IC50 [1]: 11 µM
inhibition (Escherichia coli): 95%
SMILES: CCCCCCC[n+]1ccn(CCCCCCCCCCCCCCCCn2cc[n+](CCCCCCC)c2)c1

inhibition (Escherichia coli): < 1%
SMILES: C[n+]1ccn(CCCCCCCCCCCCCCCCCCn2cc[n+](C)c2)c1.[Cl-].[Cl-]
IC50 (OC-3-VGH [8]): 5 to 12 µM
inhibition at 24 h, 500 µM [9]: 80%
growth inhibition (GI) (PC-3 [10]): Toxic
growth inhibition (GI) (AD293 [11]): Toxic
growth inhibition (GI) (PC-3 [12]): Toxic
growth inhibition (GI) (AD293 [13]): Toxic
growth inhibition (GI) (A549 [14]): Toxic
growth inhibition (GI) (A549 [15]): Toxic

inhibition [5]: Active
IC50 [1]: 121 µM
inhibition (Escherichia coli): 92%
SMILES: CCCCCCCCCCCC[n+]1ccn(CCCCCCCCCCCCCCCCn2cc[n+](CCCCCCCCCCCC)c2)c1

inhibition [5]: Active
IC50 [1]: 48 µM
inhibition (Escherichia coli): 88%
SMILES: CCCCCC[n+]1ccn(CCCCCCCCCCCCCCCCn2cc[n+](CCCCCC)c2)c1
